Source: patent US20260125370A1, “SULFOXIMINE COMPOUNDS AS HISTONE DEACETYLASE 6 INHIBITOR, AND PHARMACEUTICAL COMPOSITION COMPRISING THE SAME” (CHONG KUN DANG PHARMACEUTICAL CORP., priority 2022, published 2026)

How the values were obtained:
human recombinant HDAC1 = biological target: T1, human recombinant HDAC1 (Homo sapiens, UniProt Q13547); assay: HDAC1 enzyme activity inhibition (HDAC1 Fluorimetric Drug Discovery Assay Kit, in vitro); format: biochemical; details: samples at 100, 1000 and 10000 nM
T1 construct: purchased Enzolifesciences BML-SE456
Method: (§1) A HDAC enzyme inhibitory capacity of a test material was measured by using HDAC1 Fluorimetric Drug Discovery Assay Kit (Enzolifesciences: BML-AK511) and HDAC6 human recombinant (Calbiochem: 382180). For a HDAC1 assay, samples were treated at a concentration of 100, 1000 and 10000 nM. For a HDAC6 assay, samples were treated at a concentration of 0.1, 1, 10, 100 and 1000 nM.
(§2) For the test on the HDAC1 enzyme activity, human recombinant HDAC1 (BML-SE456) was used as a zymogen and Fluor de Lys®-SIRT1 (BNL-KI177) was used as a substrate. A 5-fold dilution of the compound was divided into a 96-well plate, after which 0.3 μg of the enzyme and […] of the substrate were inserted into each well and subjected to reaction at 37° C. for 60 minutes, such that Fluor de Lys® Developer II (BML-K1176) was inserted thereinto and subjected to reaction for 30 minutes and finished. After that, a fluorescence value (Ex 360, Em 460) was measured with a multi-plate reader (FlexStation 3, Molecular Device). An experiment on HDAC6 enzyme was conducted in accordance with the same protocol as in the HDAC1 enzyme activity test method by using human recombinant HDAC6 (382180) of Calbiochem Inc. For final result values, each IC50 value was calculated with GraphPad Prism 4.0 program.

human recombinant HDAC6 = biological target: T2, human recombinant HDAC6 (Homo sapiens, UniProt Q9UBN7); assay: HDAC6 enzyme activity inhibition (fluorimetric, in vitro); format: biochemical; details: samples at 0.1, 1, 10, 100 and 1000 nM
T2 construct: purchased Calbiochem 382180
T2 sequence (Q9UBN7 1-1215): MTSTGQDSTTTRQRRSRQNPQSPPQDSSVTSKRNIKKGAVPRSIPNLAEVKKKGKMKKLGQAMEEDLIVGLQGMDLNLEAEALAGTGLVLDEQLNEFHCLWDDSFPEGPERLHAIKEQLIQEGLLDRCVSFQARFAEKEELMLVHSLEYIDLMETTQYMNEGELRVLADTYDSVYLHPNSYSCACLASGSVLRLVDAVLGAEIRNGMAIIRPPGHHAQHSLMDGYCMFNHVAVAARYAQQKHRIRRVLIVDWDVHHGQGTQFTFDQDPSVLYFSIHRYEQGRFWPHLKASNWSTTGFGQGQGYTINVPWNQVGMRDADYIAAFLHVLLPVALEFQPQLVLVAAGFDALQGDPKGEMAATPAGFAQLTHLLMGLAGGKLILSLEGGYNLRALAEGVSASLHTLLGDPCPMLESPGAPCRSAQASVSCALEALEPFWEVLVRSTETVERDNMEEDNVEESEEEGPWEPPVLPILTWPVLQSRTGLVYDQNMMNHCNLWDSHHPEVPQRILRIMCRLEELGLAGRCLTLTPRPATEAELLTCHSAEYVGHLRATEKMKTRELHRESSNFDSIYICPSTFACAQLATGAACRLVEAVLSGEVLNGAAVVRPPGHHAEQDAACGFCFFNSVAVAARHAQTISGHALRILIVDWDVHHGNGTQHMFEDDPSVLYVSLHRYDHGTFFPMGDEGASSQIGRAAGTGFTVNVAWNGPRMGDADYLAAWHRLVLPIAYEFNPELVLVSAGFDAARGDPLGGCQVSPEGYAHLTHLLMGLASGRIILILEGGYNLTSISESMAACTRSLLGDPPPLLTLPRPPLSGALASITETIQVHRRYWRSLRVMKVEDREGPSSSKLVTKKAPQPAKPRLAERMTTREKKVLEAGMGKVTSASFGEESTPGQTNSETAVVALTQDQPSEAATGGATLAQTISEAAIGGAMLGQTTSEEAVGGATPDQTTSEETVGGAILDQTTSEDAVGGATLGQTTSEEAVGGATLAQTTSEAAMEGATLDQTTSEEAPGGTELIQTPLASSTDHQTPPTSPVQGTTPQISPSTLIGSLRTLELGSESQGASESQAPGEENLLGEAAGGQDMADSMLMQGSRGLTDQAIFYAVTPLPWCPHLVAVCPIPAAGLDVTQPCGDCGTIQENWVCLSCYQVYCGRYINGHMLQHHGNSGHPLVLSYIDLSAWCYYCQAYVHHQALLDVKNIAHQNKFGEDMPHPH
Method: as §1, §2

T1 sequence (Q13547 whole entry): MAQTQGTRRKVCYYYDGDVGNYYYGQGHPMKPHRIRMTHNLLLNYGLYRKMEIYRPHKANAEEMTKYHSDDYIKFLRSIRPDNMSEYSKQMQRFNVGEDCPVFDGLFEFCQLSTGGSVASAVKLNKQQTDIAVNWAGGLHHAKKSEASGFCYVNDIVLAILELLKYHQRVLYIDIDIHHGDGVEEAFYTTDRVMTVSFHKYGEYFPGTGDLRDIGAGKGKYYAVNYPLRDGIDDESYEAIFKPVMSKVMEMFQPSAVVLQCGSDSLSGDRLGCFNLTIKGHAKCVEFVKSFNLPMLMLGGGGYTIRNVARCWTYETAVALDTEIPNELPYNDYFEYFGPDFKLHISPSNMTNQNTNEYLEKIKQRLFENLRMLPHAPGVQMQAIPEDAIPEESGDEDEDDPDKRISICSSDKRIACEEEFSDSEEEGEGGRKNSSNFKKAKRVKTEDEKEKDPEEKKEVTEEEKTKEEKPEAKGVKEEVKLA

Row | IC50 (human recombinant HDAC1) | IC50 (human recombinant HDAC6) | SMILES
1 | > 10000 nM | 76.7 nM | N=S1(=O)CCN(C(=O)N(Cc2ccc(-c3nnc(C(F)F)o3)cc2F)c2ccc(Br)cc2)CC1 [Compound 20, N-(4-bromophenyl)-N-(4-(5-(difluoromethyl)-1,3,4-oxadiazol-2-yl)-2-fluorobenzyl)-1-iminothiomorpholin-4-carboxamide 1-oxide]
2 | > 10000 nM | 294 nM | N=S1(=O)CCN(C(=O)N(Cc2ccc(-c3nnc(C(F)F)o3)cc2F)c2ccc(SC(F)(F)F)cc2)CC1 [Compound 21, N-(4-(5-(difluoromethyl)-1,3,4-oxadiazol-2-y1)-2-fluorobenzyl)-1-imino-N-(4-((trifluoromethyl)thio)phenyl)thiomorpholin-4-carboxamide 1-oxide]
3 | > 10000 nM | 75.2 nM | N=S1(=O)CCN(C(=O)N(Cc2ccc(-c3nnc(C(F)F)o3)cc2F)c2ccc3c(c2)CCO3)CC1 [Compound 22, N-(4-(5-(difluoromethyl)-1,3,4-oxadiazol-2-y1)-2-fluorobenzyl)-N-(2,3-dihydrobenzofuran-5-yl)-1-iminothiomorpholin-4-carboxamide 1-oxide]
4 | > 10000 nM | 64.4 nM | N=S1(=O)CCN(C(=O)N(Cc2ccc(-c3nnc(C(F)F)o3)cc2F)c2ccc(-c3ccco3)cc2)CC1 [Compound 23, N-(4-(5-(difluoromethyl)-1,3,4-oxadiazol-2-yl)-2-fluorobenzyl)-N-(4-(furan-2-yl)phenyl)-1-iminothiomorpholin-4-carboxamide 1-oxide]
5 | > 10000 nM | 1010 nM | N=S1(=O)CCN(C(=O)N(Cc2ccccc2)Cc2ccc(-c3nnc(C(F)F)o3)cc2F)CC1 [Compound 24, N-benzyl-N-(4-(5-(difluoromethyl)-1,3,4-oxadiazol-2-y1)-2-fluorobenzyl)-1-iminothiomorpholin-4-carboxamide 1-oxide]
6 | > 10000 nM | 141 nM | COc1ccccc1N(Cc1ccc(-c2nnc(C(F)F)o2)cc1F)C(=O)N1CCS(=N)(=O)CC1 [Compound 25, N-(4-(5-(difluoromethyl)-1,3,4-oxadiazol-2-y1)-2-fluorobenzyl)-1-imino-N-(2-methoxyphenyl)thiomorpholin-4-carboxamide 1-oxide]
7 | > 10000 nM | 98.6 nM | N=S1(=O)CCN(C(=O)N(Cc2ccc(-c3nnc(C(F)F)o3)cc2F)c2ccsc2)CC1 [Compound 26, N-(4-(5-(difluoromethyl)-1,3,4-oxadiazol-2-yl)-2-fluorobenzyl)-1-imino-N-(thiophen-3-yl)thiomorpholin-4-carboxamide 1-oxide]
8 | > 10000 nM | 86.6 nM | COc1ccc(N(Cc2ccc(-c3nnc(C(F)F)o3)cc2F)C(=O)N2CCS(=N)(=O)CC2)cc1 [Compound 27, N-(4-(5-(difluoromethyl)-1,3,4-oxadiazol-2-y1)-2-fluorobenzyl)-1-imino-N-(4-methoxyphenyl)thiomorpholin-4-carboxamide 1-oxide]
9 | > 10000 nM | 92.2 nM | N=S1(=O)CCN(C(=O)N(Cc2ccc(-c3nnc(C(F)F)o3)cc2F)c2ccc3c(c2)CCC3)CC1 [Compound 28, N-(4-(5-(difluoromethyl)-1,3,4-oxadiazol-2-y1)-2-fluorobenzyl)-N-(2,3-dihydro-1H-inden-5-yl)-1-iminothiomorpholin-4-carboxamide 1-oxide]
10 | > 10000 nM | 54.6 nM | CC(=O)N=S1(=O)CCN(C(=O)N(Cc2ccc(-c3nnc(C(F)F)o3)cn2)c2ccc(F)c(F)c2)CC1 [Compound 30, 1-(acetylimino)-N-((5-(5-(difluoromethyl)-1,3,4-oxadiazol-2-yl)pyridin-2-yl)methyl)-N-(3,4-difluorophenyl)thiomorpholin-4-carboxamide 1-oxide]
11 | > 10000 nM | 91.4 nM | N=S1(=O)CCN(C(=O)N(Cc2ccc(-c3nnc(C(F)F)o3)cc2F)c2cccc(C(F)(F)F)c2)CC1 [Compound 31, N-(4-(5-(difluoromethyl)-1,3,4-oxadiazol-2-y1)-2-fluorobenzyl)-1-imino-N-(3-(trifluoromethyl)phenyl)thiomorpholin-4-carboxamide 1-oxide]
12 | > 10000 nM | 80.6 nM | Cc1cccc(N(Cc2ccc(-c3nnc(C(F)F)o3)cc2F)C(=O)N2CCS(=N)(=O)CC2)c1 [Compound 32, N-(4-(5-(difluoromethyl)-1,3,4-oxadiazol-2-y1)-2-fluorobenzyl)-1-imino-N-(m-tolyl)thiomorpholin-4-carboxamide 1-oxide]
13 | > 10000 nM | 51.3 nM | N=S1(=O)CCN(C(=O)N(Cc2ccc(-c3nnc(C(F)F)o3)cc2F)c2cc(F)ccc2F)CC1 [Compound 33, N-(4-(5-(difluoromethyl)-1,3,4-oxadiazol-2-y1)-2-fluorobenzyl)-N-(2,5-difluorophenyl)-1-iminothiomorpholin-4-carboxamide 1-oxide]
14 | > 10000 nM | 91.5 nM | N=S1(=O)CCN(C(=O)N(Cc2ccc(-c3nnc(C(F)F)o3)cc2F)c2cccc(-n3cccc3)c2)CC1 [Compound 34, N-(3-(1H-pyrrol-1-yl)phenyl)-N-(4-(5-(difluoromethyl)-1,3,4-oxadiazol-2-y1)-2-fluorobenzyl)-1-iminothiomorpholin-4-carboxamide 1-oxide]
15 | > 10000 nM | 59.7 nM | N=S1(=O)CCN(S(=O)(=O)N(Cc2ccc(-c3nnc(C(F)F)o3)cc2F)c2cccc(F)c2)CC1 [Compound 35, N-(4-(5-(difluoromethyl)-1,3,4-oxadiazol-2-yl)-2-fluorobenzyl)-N-(3-fluorophenyl)-1-iminothiomorpholin-4-sulfonamide 1-oxide]
16 | > 10000 nM | 30.8 nM | N=S1(=O)CCN(S(=O)(=O)N(Cc2ccc(-c3nnc(C(F)F)o3)cn2)c2cccc(F)c2)CC1 [Compound 36, N-((5-(5-(difluoromethyl)-1,3,4-oxadiazol-2-yl)pyridin-2-yl)methyl)-N-(3-fluorophenyl)-1-iminothiomorpholin-4-sulfonamide 1-oxide]
17 | > 10000 nM | 61.3 nM | CS(=O)(=O)N=S1(=O)CCN(C(=O)N(Cc2ccc(-c3nnc(C(F)F)o3)cc2F)c2ccccc2)CC1 [Compound 37, N-(4-(5-(difluoromethyl)-1,3,4-oxadiazol-2-yl)-2-fluorobenzyl)-1-((methylsulfonyl)imino)-N-phenylthiomorpholin-4-carboxamide 1-oxide]
18 | > 10000 nM | 67.2 nM | COC(=O)N=S1(=O)CCN(C(=O)N(Cc2ccc(-c3nnc(C(F)F)o3)cc2F)c2ccccc2)CC1 [Compound 38, Methyl (4-((4-(5-(difluoromethyl)-1,3,4-oxadiazol-2-yl)-2-fluorobenzyl)(phenyl)carbamoyl)-1-oxidothiomorpholin-1-ylidene)carbamate]

Row | SMILES | IC50 (human recombinant HDAC1) | IC50 (human recombinant HDAC6)
19 | CCOP(=O)(N=S1(=O)CCN(C(=O)N(Cc2ccc(-c3nnc(C(F)F)o3)cc2F)c2ccc(F)c(F)c2)CC1)OCC [Compound 29, Diethyl (4-((4-(5-(difluoromethyl)-1,3,4-oxadiazol-2-yl)-2-fluorobenzyl)(3,4-difluorophenyl)carbamoyl)-1-oxidothiomorpholin-1-ylidene)phosphoramidate] | > 10000 nM | 78.8 nM
